In patent publication US20260000645A1, “USE OF EBSELEN OR ONE OF THE DERIVATIVES THEREOF TO TREAT MITOCHONDRIAL PATHOLOGIES OR DYSFUNCTIONS” (ASSOCIATION FRANCAISE CONTRE LES MYOPATHIES, priority 2022, published 2026):

Tests used:
[1] = tested on: mutant yeast strain taz1; experiment: Halos test: respiratory growth of mutant yeast strain taz1 on non-fermentable solid medium; format: cell-based, Saccharomyces cerevisiae; conditions: 100 nmoles; compared with ebselen 100 nmoles; no halo with DMSO
Source text: C/ Effect (detected by the halos test) of ebselen oxide on the respiratory growth of the mutant yeast strain taz1 on non-fermentable solid medium, in comparison with ebselen (B) and DMSO (D)
As previously described (WO2020/254632), the different mutant yeast strains were spread over the solid respiratory agar-agar based media (containing glycerol or ethanol as the unique carbon source) and exposed to filters on which the compound tested, in particular ebselen (EBS) was deposited. The dishes were then incubated at the temperature indicated (that could be 28° C. or 36° C. depending on the strain used).
More precisely, 0.125 OD of mutant cells with exponential growth were spread homogeneously with sterile glass beads in a square Petri dish (12 cm×12 cm) containing a solid respiratory medium (YPA Ethanol, 1% yeast extract, 0.5% Bacto Peptone, 40 mg/L Adenine, 2% Ethanol for sym1 and taz1; or YPA Glycerol 2% for cox2, fmc1, atp6, shy1 et A29G). […] On each dish, the DMSO (buffer) was used as negative control (upper left-hand filter). The dishes were then incubated at 28° C. (for shy1) or 36° C. (for cox2, sym1, fmc1, atp6 taz1 and A29G) for 4 to 5 days, then photographed. The improvement of the growth was evaluated after a plurality of days of incubation by the appearance of a halo of improved growth around the filter where the active ingredient was deposited.

[2] = tested on: fibroblasts of TAZ patients; experiment: Respiratory growth/proliferation of fibroblasts of TAZ patients (SRB, low glucose); format: cell-based, human; conditions: 96 hours; vs negative control DMSO
Method: EBS was tested for the effect thereof on the respiratory growth of fibroblasts of TAZ patients, as opposed to fibroblasts from eight different patients, carriers of mutations in the TAZ gene (suffering from Barth's syndrome).
The rate of proliferation was measured in a medium with a weak concentration of glucose (1 g/L; to force cells to use the OXPHOS system rather than glycolyse) in 384 well micro-titration plates (1200 cells/wells at T0) using the Sulforhodamine B (SRB) staining protocol at 24, 48, 72 or 96 hours after placing the cells with or without 12.15 nM of EBS.
The data are the average of 8 patients or 3 controls in triplicate, in 4 independent experiments.
The rate of proliferation was then measured under the same experimental conditions but with variable concentrations of ethaselen: The cells were analyzed 96 hours after treatment with increasing doses of ethaselen (from 150 pM to 26.1 μM). The bars represent the average of 4 replicates coming from 2 patients in 3 independent experiments.

Structure (SMILES)	respiratory growth (halo) of mutant taz1 [1]	concentration range improving respiratory growth/proliferation, lower limit [2]	concentration range improving respiratory growth/proliferation, upper limit [2] [µM]
O=C1c2ccccc2[Se](=O)N1c1ccccc1 (stereo not drawn) [ebselen oxide, 1-oxide-2-phenyl-1,2-benzisoselenazol-3(2H)-one]	activity comparable to ebselen		
O=c1c2ccccc2[se]n1CCn1[se]c2ccccc2c1=O [ethasalen, Ethaselen]		about 1 nM	≤ 3
